Here are results for 32 molecules from patent US7872014B2, “Anaplastic lymphoma kinase modulators and methods of use” (Exelixis, Inc., priority 2003, dated 2011).

pIC50: −log10 of the molar value. A value given as a limit tells only on which side of the number the result lay.

The target in the test is T1, ALK (baculovirus expressed human ALK kinase domain F1098-K1410) (Homo sapiens, UniProt Q9UM73).
T1 construct: baculovirus expressed human ALK kinase domain F1098-K1410; made in house
T1 sequence (Q9UM73 1098-1410): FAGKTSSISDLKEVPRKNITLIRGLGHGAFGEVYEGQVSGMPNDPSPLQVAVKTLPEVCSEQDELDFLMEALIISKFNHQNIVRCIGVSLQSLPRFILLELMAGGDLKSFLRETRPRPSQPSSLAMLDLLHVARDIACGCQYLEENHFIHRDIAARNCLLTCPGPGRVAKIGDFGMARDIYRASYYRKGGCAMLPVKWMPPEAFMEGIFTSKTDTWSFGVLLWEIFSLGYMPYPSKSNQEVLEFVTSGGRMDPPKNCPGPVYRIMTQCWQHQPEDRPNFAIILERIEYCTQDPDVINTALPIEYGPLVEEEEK
Kind of test: Luciferase-Coupled Chemiluminescent Kinase assay (LCCA), ALK biochemical activity. Conditions: inhibition of ALK; mean values; 1 μM ATP, 4 μM poly-AEKY, 12 nM ALK, 2 hours ambient temperature. The method in brief:
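Luciferase-coupled readout of ATP remaining after reaction of 12 nM ALK kinase domain with 1 μM ATP and 4 μM poly-AEKY, Tris-HCl pH 7.5 buffer with MgCl2 and MnCl2. Incubated 2 h at ambient temperature; inhibition derived from ATP consumption across serial compound dilutions.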
As for `COc1cc2c(-c3ccc(O)c(Cl)c3)nc3[nH]nc(C)c3c2cc1OCC(F)(F)F` [Example 153, 2-chloro-4-{1-methyl-7-(methyloxy)-8-[(2,2,2-trifluoroethyl)oxy]-3H-pyrazolo[3,4-c]isoquinolin-5-yl}phenol], the pIC50 – broadly, the negative decadic logarithm of the IC50, by convention in mol/L – was 6.00 to 7.00.

`COc1c(OC)c(F)c2c(c(-c3cc(Cl)c(O)cc3F)nc3[nH]nc(C)c32)c1OC` [Example 154, 2-chloro-5-fluoro-4-[9-fluoro-1-methyl-6,7,8-tris(methyloxy)-3H-pyrazolo[3,4-c]isoquinolin-5-yl]phenol] had a negative logarithm of the IC50 (pIC50) of at least 7.00.

Take `Cc1n[nH]c2nc(-c3ccc(O)c(Cl)c3)c3c(F)cc(O)c(F)c3c12` [Example 155, 5-(3-chloro-4-hydroxyphenyl)-6,9-difluoro-1-methyl-3H-pyrazolo[3,4-c]isoquinolin-8-ol]: the pIC50 is at least 7.00.

On to `COCCOc1cc(F)c2c(-c3ccccc3F)nc3[nH]nc(C)c3c2c1F` [Example 156, 6,9-difluoro-5-(2-fluorophenyl)-1-methyl-8-{[2-(methyloxy)ethyl]oxy}-3H-pyrazolo[3,4-c]isoquinoline], for which the pIC50 is below 5.70.

Molecule `Cc1n[nH]c2nc(-c3ccc(O)c(Cl)c3)c3c(F)cc(OC(F)F)c(F)c3c12` [Example 157, 2-chloro-4-{8-[(difluoromethyl)oxy]-6,9-difluoro-1-methyl-3H-pyrazolo[3,4-c]isoquinolin-5-yl}phenol] gave a pIC50 of at least 7.00.

As to `Cc1n[nH]c2nc(-c3cc(Cl)c(O)cc3F)c3c(F)c4c(c(F)c3c12)OCCO4` [Example 158, 2-chloro-4-(6,11-difluoro-1-methyl-8,9-dihydro-3H-[1,4]dioxino[2,3-g]pyrazolo[3,4-c]isoquinolin-5-yl)-5-fluorophenol], the pIC50 is at least 7.00.

The molecule `Cc1n[nH]c2cc(-c3ccc(O)cc3)c3ccccc3c12` [Example 159, 4-(1-methyl-3H-benzo[e]indazol-5-yl)phenol] gave a pIC50 of 6.00 to 7.00.

For the molecule `Cc1n[nH]c2nc(-c3ccccc3F)c3c(F)cc4c(c3c12)OCCO4` [Example 160, 6-fluoro-7-(2-fluorophenyl)-11-methyl-2,3-dihydro-9H-[1,4]dioxino[2,3-f]pyrazolo[3,4-c]isoquinoline], the pIC50 was 6.00 to 7.00.

Take `COc1cc2c(-c3ccc(O)c(Cl)c3)nc3[nH]nc(C)c3c2cc1OCC1CCOCC1` [Example 161, 2-chloro-4-{1-methyl-7-(methyloxy)-8-[(tetrahydro-2H-pyran-4-ylmethyl)oxy]-3H-pyrazolo[3,4-c]isoquinolin-5-yl}phenol]: the pIC50 was at least 7.00.

`CCOCCOc1cc2c(cc1OC)c(-c1ccc(O)c(Cl)c1)nc1[nH]nc(C)c12` [Example 162, 2-chloro-4-[8-{[2-(ethyloxy)ethyl]oxy}-1-methyl-7-(methyloxy)-3H-pyrazolo[3,4-c]isoquinolin-5-yl]phenol] showed a pIC50 of at least 7.00.

Consider `Cc1n[nH]c2nc(-c3ccc(O)cc3F)c3c(F)cc4c(c3c12)OCCO4` [Example 164, 3-fluoro-4-(6-fluoro-11-methyl-2,3-dihydro-9H-[1,4]dioxino[2,3-f]pyrazolo[3,4-c]isoquinolin-7-yl)phenol], for which the negative-log IC50 (pIC50) was at least 7.00.

In turn, `Cc1n[nH]c2nc(-c3cc(Cl)c(O)cc3F)c3c(F)cc4c(c3c12)OCCO4` [Example 165, 2-chloro-5-fluoro-4-(6-fluoro-11-methyl-2,3-dihydro-9H-[1,4]dioxino[2,3-f]pyrazolo[3,4-c]isoquinolin-7-yl)phenol] gave a pIC50 of at least 7.00.

The molecule `COc1cc2c(-c3ccc(O)c(Cl)c3)nc3[nH]nc(C)c3c2cc1OC1CCCC1` [Example 166, 2-chloro-4-[8-(cyclopentyloxy)-1-methyl-7-(methyloxy)-3H-pyrazolo[3,4-c]isoquinolin-5-yl]phenol] had a pIC50 of at least 7.00.

The molecule `COCCOc1cc2c(cc1C(C)C)c(-c1ccc(O)c(Cl)c1)nc1[nH]nc(C)c12` [Example 167, 2-chloro-4-(1-methyl-7-(1-methylethyl)-8-{[2-(methyloxy)ethyl]oxy}-3H-pyrazolo[3,4-c]isoquinolin-5-yl)phenol] showed a pIC50 of at least 7.00.

In the case of `CCc1c(OC)ccc2c(-c3ccc(O)c(Cl)c3)nc3[nH]nc(C)c3c12` [Example 168, 2-chloro-4-[9-ethyl-1-methyl-8-(methyloxy)-3H-pyrazolo[3,4-c]isoquinolin-5-yl]phenol], the pIC50 is at least 7.00.

`Cc1n[nH]c2nc(-c3ccc(O)c(Cl)c3)c3c(F)cc(OCC4CCN(C)CC4)c(F)c3c12` [Example 169, 2-chloro-4-(6,9-difluoro-1-methyl-8-{[(1-methylpiperidin-4-yl)methyl]oxy}-3H-pyrazolo[3,4-c]isoquinolin-5-yl)phenol]: the pIC50 is at least 7.00.

Consider `COc1c(F)cc2c(c(-c3ccc(O)c(Cl)c3)nc3[nH]nc(C)c32)c1O` [Example 170, 5-(3-chloro-4-hydroxyphenyl)-8-fluoro-1-methyl-7-(methyloxy)-3H-pyrazolo[3,4-c]isoquinolin-6-ol], for which the pIC50 is at least 7.00.

Consider `COc1c(OCC2CCN(C)CC2)cc2c(c(-c3ccc(O)c(Cl)c3)nc3[nH]nc(C)c32)c1F` [Example 171, 2-chloro-4-(6-fluoro-1-methyl-7-(methyloxy)-8-{[(1-methylpiperidin-4-yl)methyl]oxy}-3H-pyrazolo[3,4-c]isoquinolin-5-yl)phenol], for which the pIC50 is at least 7.00.

On to `COCCOc1cc(F)c2c(-c3ccc(O)c(Cl)c3)nc3[nH]nc(C)c3c2c1OCCOC` [Example 172, 2-chloro-4-(6-fluoro-1-methyl-8,9-bis{[2-(methyloxy)ethyl]oxy}-3H-pyrazolo[3,4-c]isoquinolin-5-yl)phenol], for which the pIC50 was at least 7.00.

As to `COc1ccc(-c2nc3[nH]nc(C)c3c3cc(OCC4CCN(C)CC4)c(OC)c(F)c23)cc1Cl` [Example 173, 5-[3-chloro-4-(methyloxy)phenyl]-6-fluoro-1-methyl-7-(methyloxy)-8-{[(1-methylpiperidin-4-yl)methyl]oxy}-3H-pyrazolo[3,4-c]isoquinoline], the pIC50 was 5.70 to 6.00.

`COc1ccc(-c2nc3[nH]nc(C)c3c3cc(F)c(OC)c(O)c23)cc1Cl` [Example 174, 5-[3-chloro-4-(methyloxy)phenyl]-8-fluoro-1-methyl-7-(methyloxy)-3H-pyrazolo[3,4-c]isoquinolin-6-ol] showed a pIC50 below 5.70.

`COc1c(OCCN2CCCCC2)cc2c(c(-c3ccc(O)c(Cl)c3)nc3[nH]nc(C)c32)c1F` [Example 176, 2-chloro-4-{6-fluoro-1-methyl-7-(methyloxy)-8-[(2-piperidin-1-ylethyl)oxy]-3H-pyrazolo[3,4-c]isoquinolin-5-yl}phenol]: the pIC50 is at least 7.00.

Regarding `CCN1CCN(CCOc2cc3c(c(-c4ccc(O)c(Cl)c4)nc4[nH]nc(C)c43)c(F)c2OC)CC1` [Example 177, 2-chloro-4-[8-{[2-(4-ethylpiperazin-1-yl)ethyl]oxy}-6-fluoro-1-methyl-7-(methyloxy)-3H-pyrazolo[3,4-c]isoquinolin-5-yl]phenol], the pIC50 was at least 7.00.

The molecule `CCN(CC)CCOc1cc2c(c(-c3ccc(O)c(Cl)c3)nc3[nH]nc(C)c32)c(F)c1OC` [Example 178, 2-chloro-4-[8-{[2-(diethylamino)ethyl]oxy}-6-fluoro-1-methyl-7-(methyloxy)-3H-pyrazolo[3,4-c]isoquinolin-5-yl]phenol] showed a negative logarithm of the IC50 (pIC50) of at least 7.00.

`COCCOc1cc2c(c(-c3ccc(O)c(Cl)c3)nc3[nH]nc(C)c32)c(F)c1OC` [Example 179, 2-chloro-4-(6-fluoro-1-methyl-7-(methyloxy)-8-{[2-(methyloxy)ethyl]oxy}-3H-pyrazolo[3,4-c]isoquinolin-5-yl)phenol] had a pIC50 of at least 7.00.

`COc1c(OCC2CCN(C)CC2)cc(F)c2c(-c3ccc(O)c(Cl)c3)nc3[nH]nc(C)c3c12` [Example 182, 2-chloro-4-(6-fluoro-1-methyl-9-(methyloxy)-8-{[(1-methylpiperidin-4-yl)methyl]oxy}-3H-pyrazolo[3,4-c]isoquinolin-5-yl)phenol] showed a pIC50 of at least 7.00.

For `COc1c(OCC2CCN(C)CC2)cc(F)c2c(-c3ccc(O)c(Br)c3)nc3[nH]nc(C)c3c12` [Example 183, 2-bromo-4-(6-fluoro-1-methyl-9-(methyloxy)-8-{[(1-methylpiperidin-4-yl)methyl]oxy}-3H-pyrazolo[3,4-c]isoquinolin-5-yl)phenol], the negative logarithm of the IC50 (pIC50) is at least 7.00.

`COc1c(OCC2CCN(C)CC2)cc(F)c2c(-c3cc(Cl)c(O)cc3F)nc3[nH]nc(C)c3c12` [Example 184, 2-chloro-5-fluoro-4-(6-fluoro-1-methyl-9-(methyloxy)-8-{[(1-methylpiperidin-4-yl)methyl]oxy}-3H-pyrazolo[3,4-c]isoquinolin-5-yl)phenol]: the pIC50 is at least 7.00.

`COc1c(OCC2CCN(C)CC2)cc(F)c2c(-c3ccc(O)c(C)c3)nc3[nH]nc(C)c3c12` [Example 185, 4-(6-fluoro-1-methyl-9-(methyloxy)-8-{[(1-methylpiperidin-4-yl)methyl]oxy}-3H-pyrazolo[3,4-c]isoquinolin-5-yl)-2-methylphenol] showed a negative logarithm of the IC50 (pIC50) of at least 7.00.

Take `Cc1n[nH]c2nc(-c3ccc(O)c(Cl)c3)c3c(F)cc(OCCN4CCCCC4)c(F)c3c12` [Example 186, 2-chloro-4-{6,9-difluoro-1-methyl-8-[(2-piperidin-1-ylethyl)oxy]-3H-pyrazolo[3,4-c]isoquinolin-5-yl}phenol]: the pIC50 is at least 7.00.

Consider `CCN1CCN(CCOc2cc(F)c3c(-c4ccc(O)c(Cl)c4)nc4[nH]nc(C)c4c3c2F)CC1` [Example 187, 2-chloro-4-(8-{[2-(4-ethylpiperazin-1-yl)ethyl]oxy}-6,9-difluoro-1-methyl-3H-pyrazolo[3,4-c]isoquinolin-5-yl)phenol], for which the pIC50 is at least 7.00.

For `CCN(CC)CCOc1cc(F)c2c(-c3ccc(O)c(Cl)c3)nc3[nH]nc(C)c3c2c1F` [Example 188, 2-chloro-4-(8-{[2-(diethylamino)ethyl]oxy}-6,9-difluoro-1-methyl-3H-pyrazolo[3,4-c]isoquinolin-5-yl)phenol], the pIC50 is at least 7.00.
